The values below come from patent US10562844B2, “HYPDH inhibitors and methods of use for the treatment of kidney stones” (Wake Forest University Health Sciences, priority 2015, dated 2020).

T1 sequence (Q9UF12 71-439 limits assumed): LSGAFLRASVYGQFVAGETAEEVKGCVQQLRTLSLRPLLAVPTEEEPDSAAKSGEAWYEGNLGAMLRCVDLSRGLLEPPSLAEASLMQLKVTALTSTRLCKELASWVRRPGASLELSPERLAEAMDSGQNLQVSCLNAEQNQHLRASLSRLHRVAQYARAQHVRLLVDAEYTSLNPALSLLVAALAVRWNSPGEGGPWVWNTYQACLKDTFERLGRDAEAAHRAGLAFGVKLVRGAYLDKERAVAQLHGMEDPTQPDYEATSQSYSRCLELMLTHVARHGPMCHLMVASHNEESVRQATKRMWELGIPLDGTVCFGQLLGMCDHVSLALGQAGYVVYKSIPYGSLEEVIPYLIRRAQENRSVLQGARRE

The target in one test is T1, human HYPDH (Homo sapiens (Human), UniProt Q9UF12). Nature of the test: HYPDH inhibition activity assay (inhibitor pre-incubated 5 min, reaction started with Hyp). In kind it is biochemical. The following applies: inhibitor pre-incubated with HYPDH for 5 min; reaction started by addition of 600 mM Hyp. The text has this:
(§1) Despite the identification of the Hyp pathway in rat and bovine kidneys and livers over 50 years ago, very little is known about human HYPDH (also known as PRODH2 and hydroxyproline oxidase, HPOX, in the literature) (Miyata et al., Proc Natl Acad Sci USA 111, 14406-14411, 2014; Efron et al., New Engl J Med 272, 1299-1309; Pelkonen et al., New Engl J Med 283, 451-456, 1970). In an effort to biochemically and structurally characterize human HYPDH, we have evaluated numerous expression constructs (>15) in Escherichia coli with N- and C-terminal truncations. […] Only the constructs containing the residues 147-515 and 156-515 were >96% loaded with FAD+ and active.
Each inhibitor was pre-incubated with HYPDH for 5 min, and the reaction started by the addition of 600 mM Hyp. A range of concentrations was tested in order to determine the IC50 value. Table 1 lists the potency of the compounds.
As for `O=C1CCC(C(=O)O)C1` (stereo not drawn) [Compound 10], the IC50 came to 380 ± 10 µM.
On the same count and under the same terms, as for `O=C(O)C1CC[C@@H](O)C1` (stereo partly drawn) [Compound 6], the figure is greater than 10000 µM; as for `O=C(O)C1CCCO1` (stereo not drawn) [Compound 2], 1500 ± 100 µM; as for `O=C1CC[C@@H](C(=O)O)C1` [Compound 11], 370 ± 10 µM.
On the same count and under the same terms, the result for `O=C(O)C1CCC(O)C1` (stereo not drawn) [Compound 5] reads 2100 ± 100 µM; that for `N[C@H]1CCC(C(=O)O)C1` (stereo partly drawn) [Compound 9], 630 ± 10 µM; that for `O=C(O)C1CC[C@H](O)C1` (stereo partly drawn) [Compound 7], 600 ± 10 µM.
Still for that read-out and setting: the result for `O=C(O)C[C@H]1CC[C@H](O)C1` [Compound 8] reads 480 ± 10 µM.

The next test has as its target T1, human HYPDH. As to the kind of experiment: Anaerobic titration of the FAD+ spectrum of recombinant HYPDH. In kind it is binding.
Conditions: not given
Source text: as §1
Regarding `O=C(O)C1CC(O)CN1` (stereo not drawn) [Hyp, Hydroxyproline], the Kd is 125 µM.
